We go through 28 compounds from patent US10703757B2, “Compounds and methods for CDK8 modulation and indications therefor” (Plexxikon Inc., priority 2016, dated 2020).

Assay [1] relates to CDK8 (TCF/LEF luciferase reporter in HCT116 cells). Kind of assay: Cell based TCF/LEF reporter assay (HCT116+TCF/LEF luciferase). Particulars: Homo sapiens, HCT-116, 24 h. The source says: Determine Inhibitor Activity Against CDK8 in Cell Based TCF/LEF Reporter Assay
The colorectal carcinoma cell line HCT116 was stably transduced with lentivirus encoding the TCF/LEF promoter upstream of a luciferase reporter gene (Qiagen) and single cell clones expressing this construct (referred to as HCT116+TCF/LEF) were isolated. HCT116 express endogenous mutant β-catenin^3, resulting in up-regulation of transcription through the TCF/LEF promoter. Expression of the TCF/LEF reporter construct in HCT116 results in constitutive expression of luciferase. Treatment of the cells with inhibitors of components of the β-catenin signaling pathway (such as CDK8) results in decreased expression of luciferase. The assay is performed as follows. The HCT116+TCF/LEF cell line is seeded in a 96 well plate in 50 μL of culture media at 1×10^4 cells/well and incubated at 37° C. overnight. Serial dilutions of compounds (in total volume of 50 μL culture media) are added to the cells and incubated at 37° C. for 24 hours. 4 wells of DMSO treated cells serve as high controls and cells treated with 10 uM of the reference compound CCT251545 (a known CDK8 inhibitor)^4 serve as low controls. The viability of the cells is assayed by the addition of […] reagent (Promega) followed by 30 minute incubation at 37° C. and quantification of the fluorescent signal (Ex400/Em505). The luciferase expression is then assayed by the addition of 25 μL ONE-Glo reagent (Promega) followed by 10 minute incubation at room temperature and quantification of the luminescence signal. The luminescence signal is normalized to the fluorescence signal to correct for any loss in cell viability over the 24 hour compound incubation period. The percentage inhibition at individual concentrations relative to high and low controls is calculated. The data are analyzed by using nonlinear regression to generate IC50 values.
In general terms: A reporter such as luciferase makes a cellular process visible.

The subject of assay [2] is CDK8 (phosphorylation of STAT1 at serine 727 in A549 cells). Kind of assay: Cell based Phospho-STAT1 assay (IFNγ-stimulated A549 cells, AlphaLISA). The note with it: Homo sapiens, A549, A549 cells, phospho-STAT1 after IFNγ stimulation. Put shortly:
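A549 cells given serial compound dilutions for 1 h at 37 °C, then stimulated with IFNγ at 10 ng/mL final for 30 min. Lysate STAT1 Ser727 phosphorylation measured by AlphaLISA; % inhibition vs stimulated/unstimulated DMSO controls, IC50 by nonlinear regression.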
Background: In Alpha technology, singlet oxygen from a donor bead excites a nearby acceptor bead.

For `N#CC1CCC(c2cccn3ncc(-c4ccc(-n5ccnn5)cc4)c23)CC1` (mixture of isomers) [Compound P-0217, (1r,4r) and (1s,4s)-4-[3-[4-(triazol-1-yl)phenyl]pyrazolo[1,5-a]pyridin-4-yl]cyclohexanecarbonitrile], the IC50 in assay [1] and in assay [2] was 0.1 to 100 nM throughout.

Consider `CC(C)(O)Cn1cc(-c2ccc(-c3cnn4ccnc(C5CCC(C#N)CC5)c34)c(F)c2)cn1` (stereo not shown) [Compound P-0001, (1s,4s)-4-(3-(2-fluoro-4-(1-(2-hydroxy-2-methylpropyl)-1H-pyrazol-4-yl)phenyl)pyrazolo[1,5-a]pyrazin-4-yl)cyclohexane-1-carbonitrile], for which the IC50 in assay [1] and in assay [2] was 0.1 to 100 nM each time.

`N#CCCCn1cc(-c2ccc(-c3cnn4ccnc(C5CCC(C#N)CC5)c34)cc2)cn1` (stereo not shown) [Compound P-0002, (1s,4s)-4-(3-(4-(1-(3-cyanopropyl)-1H-pyrazol-4-yl)phenyl)pyrazolo[1,5-a]pyrazin-4-yl)cyclohexane-1-carbonitrile]: the IC50 in assay [1] and in assay [2] was 0.1 to 100 nM each time.

In assay [1], `N#CC1CC=C(c2nccn3ncc(-c4ccc(OCC(F)(F)F)c(F)c4)c23)CC1` (stereo not shown) [Compound P-0037, 4-(3-(3-fluoro-4-(2,2,2-trifluoro-ethoxy)phenyl)pyrazolo[1,5-a]pyrazin-4-yl)cyclohex-3-ene-1-carbonitrile] yielded an IC50 of 100 to 1000 nM.

As to `CC(C)(C#Cc1cccn2ncc(-c3ccc(N4CCOCC4)c(F)c3)c12)C(=O)O` [Compound P-0092, 4-(3-(3-fluoro-4-morpholinophenyl)pyrazolo[1,5-a]pyridin-4-yl)-2,2-dimethylbut-3-ynoic acid], in assay [1], the IC50 is 100 to 1000 nM.

The compound `CC(C)(O)Cn1cc(-c2ccc(-c3cnn4cccc(C#CC(C)(C)C(=O)O)c34)cc2)cn1` [Compound P-0093, 4-(3-(4-(1-(2-hydroxy-2-methylpropyl)-1H-pyrazol-4-yl)phenyl)pyrazolo[1,5-a]pyridin-4-yl)-2,2-dimethylbut-3-ynoic acid] gave an IC50 in assay [1] of 100 to 1000 nM.

For `N#CC1CC=C(c2c(-c3ccc4c(cnn4CC4(C(=O)O)CC4)c3)cnc3[nH]ccc23)CC1` (stereo not shown) [Compound P-0108, 1-((5-(4-(4-cyanocyclohex-1-en-1-yl)-1H-pyrrolo[2,3-b]pyridin-5-yl)-1H-indazol-1-yl)methyl)cyclopropane-1-carboxylic acid], the IC50 in assay [1] is 100 to 1000 nM.

As to `Cc1cc(-c2ccc(-c3cnc4[nH]ccc4c3N3CCC(C#N)CC3)cc2)n[nH]1` [Compound P-0175, 1-(5-(4-(5-methyl-1H-pyrazol-3-yl)phenyl)-1H-pyrrolo[2,3-b]pyridin-4-yl)piperidine-4-carbonitrile], the IC50 in assay [1] fell in the range of 0.1 to 100 nM.

Compound `O=C(O)C1CC=C(c2cccn3ncc(-c4ccc(-n5ccnn5)cc4)c23)CC1` (stereo not shown) [Compound P-0212, 4-(3-(4-(1H-1,2,3-triazol-1-yl)phenyl)pyrazolo[1,5-a]pyridin-4-yl)cyclohex-3-ene-1-carboxylic acid] yielded an IC50 in assay [1] of 100 to 1000 nM.

In assay [1], `N#CC1CCN(c2cccn3ncc(-c4ccc(S(=O)(=O)N5CCCCC5)cc4)c23)CC1` [Compound P-0256, 1-(3-(4-(piperidin-1-ylsulfonyl)phenyl)pyrazolo[1,5-a]pyridin-4-yl)piperidine-4-carbonitrile] registered an IC50 of 1000 to 10000 nM.

Turning to `Cn1cc(C#Cc2cccn3ncc(-c4ccc(-c5cnn(C)c5)cc4)c23)cn1` [Compound P-0428, 4-((1-methyl-1H-pyrazol-4-yl)ethynyl)-3-(4-(1-methyl-1H-pyrazol-4-yl)phenyl)pyrazolo[1,5-a]pyridine], the IC50 in assay [2] lay within 100 to 1000 nM.

`Cn1cc(-c2ccc(-c3cnn4cccc(-c5cn[nH]c5)c34)cc2)cn1` [Compound P-0430, 3-(4-(1-methyl-1H-pyrazol-4-yl)phenyl)-4-(1H-pyrazol-4-yl)pyrazolo[1,5-a]pyridine] returned an IC50 in assay [2] of 1000 to 10000 nM.

In assay [2], `Cn1cc(-c2ccc(-c3cnn4cccc(-c5cnn(C(=O)OC(C)(C)C)c5)c34)cc2)cn1` [Compound P-0431, tert-butyl 4-(3-(4-(1-methyl-1H-pyrazol-4-yl)phenyl)pyrazolo[1,5-a]pyridin-4-yl)-1H-pyrazole-1-carboxylate] displayed an IC50 of 1000 to 10000 nM.

For `Cn1cc(-c2ccc(-c3c[nH]c4ncc(Br)c(N5CCC(C#N)CC5)c34)cc2)cn1` [Compound P-0432, 1-[5-bromo-3-[4-(1-methylpyrazol-4-yl)phenyl]-H-pyrrolo[2,3-b]pyridin-4-yl]piperidine-4-carbonitrile], the IC50 in assay [2] was in the range of 1000 to 10000 nM.

As for `Cn1cc(C#Cc2cnn3cccc(C4=CCC(C#N)CC4)c23)cn1` (stereo not shown) [Compound P-0433, 4-[3-[2-(1-methylpyrazol-4-yl)ethynyl]pyrazolo[1,5-a]pyridin-4-yl]cyclohex-3-ene-1-carbonitrile], the concentration for half-maximal inhibition (IC50) in assay [2] lay within 0.1 to 100 nM.

In turn, `Cn1cc(-c2ccc(-c3cnc4cccc(N5CCC(CO)CC5)n34)cc2)cn1` [Compound P-0434, [1-[3-[4-(1-methylpyrazol-4-yl)phenyl]imidazo[1,2-a]pyridin-5-yl]-4-piperidyl]methanol] showed an IC50 in assay [2] of 1000 to 10000 nM.

For `CC(=O)N1CC=C(c2cccc3ncc(-c4ccc(-c5cnn(C)c5)cc4)n23)CC1` [Compound P-0436, 1-(4-(3-(4-(1-methyl-1H-pyrazol-4-yl)phenyl)imidazo[1,2-a]pyridin-5-yl)-3,6-dihydropyridin-1(2H)-yl)ethan-1-one], the IC50 in assay [2] fell in the range of 1000 to 10000 nM.

`CN1CCC(Oc2cccc3ncc(-c4ccc(-c5cnn(C)c5)cc4)n23)CC1` [Compound P-0439, 3-(4-(1-methyl-1H-pyrazol-4-yl)phenyl)-5-((1-methylpiperidin-4-yl)oxy)imidazo[1,2-a]pyridine]: the IC50 in assay [2] fell in the range of 0.1 to 100 nM.

In assay [2], `N#CC1CCN(c2cccc3ncc(-c4ccc(-c5cnn(C(F)F)c5)cc4)n23)CC1` [Compound P-0440, 1-(3-(4-(1-(difluoromethyl)-1H-pyrazol-4-yl)phenyl)imidazo[1,2-a]pyridin-5-yl)piperidine-4-carbonitrile] registered an IC50 of 0.1 to 100 nM.

Turning to `O=C1Nc2ccccc2C12CCN(c1cccc3ncc(-c4ccc(-c5cnn(C(F)F)c5)cc4)n13)CC2` [Compound P-0441, 1′-(3-(4-(1-(difluoromethyl)-1H-pyrazol-4-yl)phenyl)imidazo[1,2-a]pyridin-5-yl)spiro[indoline-3,4′-piperidin]-2-one], in assay [2], the IC50 is 0.1 to 100 nM.

In assay [2], `CNC(=O)C1CC=C(c2cccn3ncc(-c4ccc(-c5cnn(C)c5)cc4)c23)CC1` (stereo not shown) [Compound P-0442, N-methyl-4-(3-(4-(1-methyl-1H-pyrazol-4-yl)phenyl)pyrazolo[1,5-a]pyridin-4-yl)cyclohex-3-ene-1-carboxamide] yielded an IC50 of 0.1 to 100 nM.

Compound `CCOC(=O)C1CC=C(c2cccn3ncc(-c4ccc(-c5cnn(C)c5)cc4)c23)CC1` (stereo not shown) [Compound P-0446, ethyl 4-(3-(4-(1-methyl-1H-pyrazol-4-yl)phenyl)pyrazolo[1,5-a]pyridin-4-yl)cyclohex-3-ene-1-carboxylate] registered an IC50 in assay [2] of 100 to 1000 nM.

`CCOC(=O)C1CCN(c2cccc3ncc(-c4ccc(-c5cnn(C)c5)cc4)n23)CC1` [Compound P-0447, ethyl 1-(3-(4-(1-methyl-1H-pyrazol-4-yl)phenyl)imidazo[1,2-a]pyridin-5-yl)piperidine-4-carboxylate]: the IC50 in assay [2] was in the range of 0.1 to 100 nM.

Consider `N#CC1CCN(c2cccc3ncc(-c4ccc(CNC(=O)c5cccnc5)cc4)n23)CC1` [Compound P-0448, N-(4-(5-(4-cyanopiperidin-1-yl)imidazo[1,2-a]pyridin-3-yl)benzyl)nicotinamide], for which, in assay [2], the concentration for half-maximal inhibition (IC50) lay within 1000 to 10000 nM.

Take `O=C(NCc1ccc(-c2cnc3cccc(N4CCC5(CCNC5=O)CC4)n23)cc1)c1cccnc1` [Compound P-0449, N-(4-(5-(1-oxo-2,8-diazaspiro[4.5]decan-8-yl)imidazo[1,2-a]pyridin-3-yl)benzyl)nicotinamide]: the IC50 in assay [2] was 1000 to 10000 nM.

For the compound `Cn1cc(-c2ccc(-c3cnc4cccc(N5CCC6(CCNC6=O)CC5)n34)cc2)cn1` [Compound P-0450, 8-(3-(4-(1-methyl-1H-pyrazol-4-yl)phenyl)imidazo[1,2-a]pyridin-5-yl)-2,8-diazaspiro[4.5]decan-1-one], in assay [2], the IC50 was 0.1 to 100 nM.

In turn, `Cn1cc(-c2ccc(-c3cnc4cccc(N5CCC(C#N)(c6ccccc6)CC5)n34)cc2)cn1` [Compound P-0451, 1-(3-(4-(1-methyl-1H-pyrazol-4-yl)phenyl)imidazo[1,2-a]pyridin-5-yl)-4-phenylpiperidine-4-carbonitrile] came in with an IC50 in assay [2] of 0.1 to 100 nM.

In the case of `Cn1cc(Nc2ncc(-c3cnc4cccc(N5CCC6(CC5)C(=O)Nc5ccccc56)n34)cn2)cn1` [Compound P-0453, 1′-(3-(2-((1-methyl-1H-pyrazol-4-yl)amino)pyrimidin-5-yl)imidazo[1,2-a]pyridin-5-yl)spiro[indoline-3,4′-piperidin]-2-one], the IC50 in assay [2] lay in the range of 100 to 1000 nM.

A word on the IC50: it is the point on the concentration scale where inhibition reaches its midpoint. A low value points to greater potency in that assay.
